In US7915285B2, “Method for treating drug and behavioral addictions” (priority 2005, dated 2011):
Read-outs that look alike come from different tables or passages of the source.

Assays:
[1] = system: activated microglia; settings: dose-dependent; cited from earlier work
[2] = administered systemically; cited from earlier work
[3] = Previous range-finding tolerability studies, intraperitoneal; assay type: in vivo; settings: twice a day (bid) for multiple days
[4] = system: naloxone-precipitated morphine withdrawal syndrome; assay: Rat model of naloxone-precipitated morphine withdrawal, total withdrawal score (Example 2); assay type: in vivo
Protocol: (§1) Drug stability and concentration were validated by HPLC/MS/MS.
(§2) Pathogen-free adult male Sprague-Dawley rats (280-350 g; Harlan Labs) were used in all experiments. Rats were housed in temperature (23+/×3° C.) and light (12:12 light: dark; lights on at 0700 hr) controlled rooms with standard rodent chow and water available ad libitum. Behavioral testing was performed during the light cycle. Approval of the Institutional Animal Care and Use Committee at University of Colorado was obtained for all procedures.
The schedule for morphine treatment (via subcutaneous injections) was as follows: Day 1: 5 mg/kg at 1000 hr, 5 mg/kg at 1300 hr, 5 mg/kg at 1700 hr; Day 2: 5 mg/kg at 1000 hr, 12.5 mg/kg at 1700 hr; Day 3: 15 mg/kg at 1000 hr; Day 4: 17.5 mg/kg at 1000 hr; Day 5: 5 mg/kg at 1000 hr, 17.5 mg/kg at 1200 hr.
(§3) The withdrawal signs measured were: (1) abnormal posturing (an animal presses his abdomen and lower jaw against the floor of the cage); (2) exploration (an animal circles around the cage, thrusting its head in several directions and examining its surroundings); (3) jumping; (4) cleaning (grooming); (5) rearing (an animal stands on its hindpaws with the forepaws off the ground).
Withdrawal scores were measured by blinded observers in 10 minute blocks for 60 minutes immediately after naloxone precipitated withdrawal was initiated. […]

[5] = system: nucleotide phosphodiesterase (PDE); settings: non-selective PDE inhibitor; cited from earlier work
[6] = system: naloxone precipitated withdrawal behaviors; assay: Naloxone precipitated withdrawal behaviors (Example 4); assay type: in vivo, rat; settings: for naloxone precipitated withdrawal behaviors: 60 minute observation period, FIG. 5
Protocol: as §3
Withdrawal scores were measured by blinded observers in 10 minute blocks for 60 minutes immediately after naloxone precipitated withdrawal was initiated. The observations were pooled from 1-10 minutes, 11-20 minutes, 21-30 minutes, 31-40 minutes, 41-50 minutes, 51-60 minutes for each individual rat after naloxone administration, giving six time points. The average score (for each time point) for all animals within an experimental group was reported as the “total withdrawal score” in FIGS. 2A-2D.

[7] = system: nucleus accumbens dopamine; assay: Nucleus accumbens dopamine microdialysis after 5 days of morphine and ibudilast (Example 6); assay type: in vivo, rat; settings: for nucleus accumbens dopamine levels: 7.5 mg/kg
Protocol: Pathogen-free adult male Sprague-Dawley rats were used in all experiments. Rats (300-325 g at the time of arrival; Harlan Labs, Madison, Wis.) were housed in temperature (23±3° C.) and light (12:12 light:dark; lights on at 0700 hours) controlled rooms with standard rodent chow and water available ad libitum. All procedures were approved by the Institutional Animal Care and Use Committee at the University of Colorado at Boulder. Upon arrival male Sprague Dawley rats (300-400 g) were housed in pairs and allowed to acclimatize to the animal colony for one week. 5×90 minute sessions of handling by investigators and animal acclimatization to the microdialysis environment were performed during the following week.
Microdialysis guide cannula implantation was performed under halothane anaesthesia. CMA 12 guide cannulae (CMA Microdialysis) were aimed at either the right or left nucleus accumbens (AP=+1.7, LM=±0.8, DV=−6.0) in a counterbalanced fashion. Coordinates were from bregma using the atlas of Paxinos and Watson (1998). The guide cannulae and a tether screw (CMA Microdialysis) were anchored to the skull with three jeweler's screws and dental cement. Rats were individually housed after surgery and allowed to recover for one week.
Animals then began a 7 day dosing regimen (groups of 6 animals at a time, n=10 per treatment group). […] Body weights were recorded prior to each dosing session to allow for accurate dose calculations and to track the opioid induced weight loss.
Microdialysis probes (CMA 12, MW cut-off 20,000 Da, 2 mm active membrane) were inserted into the guide cannulae and rats were placed in separate Plexiglas infusion bowls with food and water available ad libitum. […] Dialysates were analyzed by HPLC within 2 weeks of collection.
Dopamine in the dialysates was determined using an ESA 5600A COULARRAY detector with an ESA 5014B analytical cell and an ESA 5020 guard cell connected to an ESA HR80 column (C18, […], 80×3 mm) which was maintained at 30° C. […] Quantitative comparisons were made with external standards (Sigma-Aldrich, St Louis, Mo.) that were run each day. […]

[8] = system: dopamine release in the nucleus accumbens; assay: In vivo microdialysis of nucleus accumbens dopamine (Example 3); parameters: species or system rat
Protocol: (§4) Dopamine release in the nucleus accumbens is thought to mediate the “reward” associated with drugs of abuse. […] After 3 baseline samples (20 minute inter-sample interval), morphine was administered to all rats. Dialysis samples were collected at 20 minute intervals for 180 minutes. To test behavioral withdrawal and reversal of morphine-induced dopamine, all rats were administered the opioid antagonist naloxone after the 60 minute sample time was completed.

[9] = assay type: in vivo, rat; settings: normalized to weight at start of morphine
[10] = Pharmacokinetics and tissue distribution of ibudilast in rat; assay type: in vivo
Protocol: Ibudilast pharmacokinetics and distribution into plasma, muscle, brain, and spinal cord were assessed as follows.
as §1
as §2, with “(23+/−3°” for “(23+/×3°”, “cycle.” for “cycle. Approval of the Institutional Animal Care and Use Committee at University of Colorado was obtained for all procedures.”
Calibration standards in plasma were prepared by diluting each 0.5 mg/ml stock 1 in 100 into rat plasma to 5000 ng/ml (5 μl+495 μl), and then diluted further to 2.29 ng/ml by 3-fold serial dilution with plasma. Standards were used as low, mid and high QC samples, respectively.
Calibration standards, QC and plasma study samples were prepared for HPLC injection by precipitating 25 μl of plasma with three volumes (75 μl) of ice cold acetonitrile containing 50 ng/ml diphenhydramine and 100 ng/ml dextromethorphan as the internal standards. Tissue study samples were prepared for HPLC injection by adding 1 μl of water per mg of tissue plus three volumes (relative to water) of ice cold acetonitrile containing 50 ng/ml diphenhydramine and 100 ng/ml dextromethorphan as the internal standards, then homogenizing with an electric homogenizer.

[11] = Spontaneous opioid withdrawal induced weight loss (Example 5); assay type: in vivo, rat; settings: FIG. 9
Protocol: Pathogen-free adult male Sprague-Dawley rats were used in all experiments. Rats (350-375 g at the time of arrival; Harlan Labs, Madison, Wis.) were housed in temperature (23±3° C.) and light (12:12 light:dark; lights on at 0700 hours) controlled rooms with standard rodent chow and water available ad libitum. All procedures were approved by the Institutional Animal Care and Use Committee at the University of Colorado at Boulder. Upon arrival male Sprague Dawley rats (300-400g) were housed individually and allowed to acclimatize to the animal colony telemetry room for one week. 5×90 minute sessions of handling by investigators were performed during the following week. Rats were anesthetized with isoflurane, and emitters for measuring core body temperature ([…], Sun River, Oreg.) were implanted in the peritoneal cavity. Gross motor movement was assessed by telemetry using the same emitters used for recording core body temperature. The emitter had to move for activity to be counted; thus, stationary movements such as grooming were not counted. Activity counts and core body temperature were measured every minute and movement averaged over 120 minutes was calculated (thereby smoothing the data). […] Body weights were recorded prior to each dosing session to allow for accurate dose calculations and to track the opioid induced weight loss (also occurred on days when no dosing was conducted).

[12] = system: naloxone-induced behavioral withdrawal signs; assay: Naloxone-induced withdrawal behavior during microdialysis (Example 3); assay type: in vivo, rat; settings: 7.5 mg/kg b.i.d. with morphine, vs PEG-saline vehicle and morphine, FIG. 4
Protocol: as §4

[13] = system: microglial activation marker CD11b; assay: Brain immunohistochemistry and densitometry of microglial activation marker (Example 4); assay type: in vivo, rat; settings: chronic morphine administration, FIG. 6
Protocol: Immunoreactivity for OX-42 (antibody that recognizes complement type 3 receptors, e.g., CD11b) and/or glial fibrillary acidic protein (GFAP), microglial and astrocyte activation markers, respectively, were assessed. Sections (20 μm) were treated with 0.3% H2O2 in Tris-buffered saline (TBS) for 20 minutes at room temperature to suppress endogenous peroxidase activity. Sections were then incubated overnight at 4° C. in monoclonal mouse anti-rat OX-42 (1:100; Pharmingen, San Diego, Calif.) or monoclonal mouse anti-rat GFAP antibody (1:200; Chemicon, Temecula, Calif.) in TBS with 2% normal goat serum and 0.5% Triton-X-100. Subsequently, sections were incubated with the appropriate secondary biotinylated antibodies (1:400; Jackson ImmunoResearch, West Grove, Pa.) for 2 hours at room temperature, incubated in avidin -biotin complex solution (ABC; 1:200; Vector Laboratories, Burlingame, Calif.) for 2 hours at room temperature, followed by reaction with 0.5 mg/ml 3,3′-diaminobenzidine tetrahydrochloride (DAB; Sigma). Finally, sections were dried, dehydrated, and coverslipped with Permount. Staining was evaluated by light microscopy. Densitometry of immunohistochemical staining was subsequently evaluated using computer software (NIH image).

[14] = system: interleukin-1 mRNA; assay: mRNA analysis of brain nuclei by real-time PCR (Example 4); assay type: in vivo, rat; settings: morphine; dorsal and ventral periaqueductal grey region, FIG. 8
Protocol: Following scoring of withdrawal behaviors animals received an intraperitoneal injection of 0.8 ml of 50 mg/ml sodium pentobarbital, and once anesthetized, animals were transcardially perfused. Half of each treatment group were perfused with saline and half with 4% paraformaldehyde. Spinal cord and brains were collected (saline perfusion for protein and mRNA quantification and paraformaldehyde perfusion for immunohistochemistry). Samples collected from saline perfused animals were flash frozen in liquid nitrogen and stored at −80° C. Paraformaldehyde perfused samples were stored in 4% paraformaldehyde for 48 hours and then transferred to 30% sucrose (0.1% azide) until tissue sectioning.
Amplification of cDNA was performed using the [sequence] […] Linearity and efficiency of PCR amplification were assessed using standard curves generated by increasing amounts of cDNA. SYBR green l fluorescence (PCR product formation) was monitored in real time using the MYIQ single color real-time PCR detection system (Bio-Rad). […] Linearity and efficiency of PCR amplification were assessed using standard curves generated by increasing amounts of cDNA. SYBR green 1 fluorescence (PCR product formation) was monitored in real time using the MYIQ single color real-time PCR detection system (Bio-Rad). […]

CC(C)C(=O)c1c(C(C)C)nn2ccccc12 [ibudilast, 2-methyl-1-(2-(1-methylethyl)pyrazolo(1,5-a)pyridin-3-yl)1-propanone]
production of inhibitory cytokine and neurotrophic factors [1]: enhanced the production of the inhibitory cytokine, IL-10, and additional neurotrophic factors | production of pro-inflammatory mediators [1]: suppressed the production of nitric oxide (NO), reactive oxygen species, interleukin (IL)-1β, IL-6, and tumor necrosis factor (TNF) | blood-brain barrier passage [2]: crosses the blood-brain barrier when administered systemically | well-tolerated dose level [3]: up to 15 mg/kg | total withdrawal score ([4]; high dose 7.5 mg/kg i.p. bid, FIG. 2B, 2D): remarkably attenuated behavioral signs of withdrawal | total withdrawal score ([4]; low dose 2.5 mg/kg i.p. bid, vs saline controls, FIG. 2C): no effect compared to saline controls | PDE inhibition profile [5]: most active against PDE-3, PDE-4, PDE-10, and PDE-11 | naloxone precipitated withdrawal behaviors ([6]; 2.5 mg/kg): dramatic reduction of naloxone precipitated withdrawal behaviors | naloxone precipitated withdrawal behaviors ([6]; 7.5 mg/kg): dramatic reduction of naloxone precipitated withdrawal behaviors | individual withdrawal behaviors ([6]; on an individual behavior basis): reductions in all behaviors except for rearing, exploration and wet dog shakes | nucleus accumbens dopamine levels ([7]; during naloxone precipitated opioid withdrawal, FIG. 10): reduced nucleus accumbens dopamine levels | nucleus accumbens dopamine levels ([7]; following morphine administration, spontaneous opioid withdrawal, FIG. 11): also reduced nucleus accumbens dopamine levels | morphine induced nucleus accumbens dopamine increases ([7]; morphine-dependent animals, during morphine administration and withdrawal, FIGS. 10 and 11): dramatically reduced morphine induced nucleus accumbens dopamine increases | dopamine release into the nucleus accumbens in response to morphine ([8]; 7.5 mg/kg b.i.d. co-administered with morphine across 5 days, FIG. 3): suppressed release of dopamine into the nucleus accumbens in response to morphine | basal levels of dopamine ([8]; 7.5 mg/kg b.i.d., baseline samples): did not decrease basal levels of dopamine | morphine induced weight loss on day 7 ([9]; 2.5 mg/kg ibudilast): 16.6 ± 5.7 g | morphine induced weight loss on day 7 ([9]; 7.5 mg/kg ibudilast): 13.3 ± 7.1 g | plasma concentration profile ([10]; i.p. 5 mg/kg): declined from Cmax in a biphasic manner | tissue distribution ([10]; i.p. 5 mg/kg, muscle, brain, spinal cord): well distributed to peripheral (e.g. muscle) and central (e.g. brain and spinal cord) tissues | Cmax ([10]; male, Sprague-Dawley, plasma and CNS tissues (brain, spinal cord), ip, i.p. ~5 mg/kg, in 15% ethanol/saline, read-out: maximal concentration (Cmax) in plasma and CNS tissues): ~1000 ng/mL | half-life ([10]; male, Sprague-Dawley, plasma, muscle, brain, spinal cord (all tissue compartments), ip, i.p. 5 mg/kg, all tissue compartments, read-out: elimination half-life): 1.67 to 2.32 h | spontaneous opioid withdrawal induced weight loss ([11]; higher dose (7.5 mg/kg twice daily)): substantially attenuated weight loss | spontaneous opioid withdrawal induced weight loss ([11]; lower dose (2.5 mg/kg twice daily)): only a trend towards improved weight change | naloxone-induced behavioral withdrawal signs [12]: suppressed naloxone-induced behavioral withdrawal signs

CN1CC[C@]23c4c5ccc(O)c4O[C@H]2[C@@H](O)C=C[C@H]3[C@H]1C5 [morphine]
CD11b staining after chronic administration [13]: visible upregulation of the microglia activation marker CD11b | interleukin-1 mRNA [14]: dramatic increase in interleukin-1 mRNA in the dorsal, but not the ventral periaqueductal grey region

C=CCN1CC[C@]23c4c5ccc(O)c4O[C@H]2C(=O)CC[C@@]3(O)[C@H]1C5 [naloxone]
morphine-induced dopamine release after opioid antagonist ([8]; naloxone given after the 60 minute sample): reversed the morphine-induced dopamine release
